The experiment concerns ScGT1. The experiment can be described thus: Inhibition of SERPINA3N in mouse GT1 cells chronically infected with RML prion (ScGT1) assessed as reduction of PrPSc levels measured by western blot analysis. Format: cell-based. The arrangement: concentration or dose not given beside the values.

In ChEMBL document CHEMBL5052831, “Serpin inhibitors for the treatment of prion and prion-like diseases” (2021) one finds Activity data, which are given here for 7 molecules.

Structures are written as SMILES.

Regarding `Cc1ccc(-n2ncc(C(=O)C3CCN(C(=O)C4CCC4)C3)c2N)cc1` (configuration not stated), the Activity is 50%.

Consider `O=C(NC1CCCOC1)c1cnn(-c2ccc(F)cc2)c1` (configuration not stated), for which the Activity turned out to be 50%. The value for `Nc1c(C(=O)c2c[nH]c3ccccc23)cnn1-c1ccccc1` was 50%.

Turning to `CC(=O)N1CCC(C(=O)c2cnn(-c3cccc(F)c3)c2N)CC1`, the Activity was 50%. Then `Cc1n[nH]c(C)c1CNC(=O)c1cnn(-c2ccc(F)cc2)c1`, with 50%; and `Cc1ccc(-n2ncc(C(=O)C3CCN(C(=O)c4scnc4C)CC3)c2N)cc1`, with 50%. Then `Nc1c(C(=O)C2CCN(C(=O)c3ccno3)CC2)cnn1-c1ccccc1`, with 50%.
